From patent US9101577B2, “Analgesic pharmaceutical composition for oral administration” (Warszawski Uniwersytet Medyczny, priority 2011, dated 2015)

Tests used:
Male Wistar rats [1] = assay: Prolonged activity on repeated daily p.o. administration (7 or 10 days), paw withdrawal test (Randall and Selitto); type: in vivo, rat; details: 15 mg magnesium ions/kg p.o. with oxycodone 5 mg/kg p.o.
Experimental: (§1) Male Wistar rats (250-300 g) were housed in a room maintained at a temperature of 20±2° C. under 12 h-12 h light-dark cycles. The animals had free access to food and water. Experimental groups consisted of six rats.
(§2) Drugs • Morphine at a dose of 15 mg/kg, codeine at a dose of 175 mg/kg, tramadol at a dose of 125 mg/kg and oxycodone at a dose of 5 mg/kg were dissolved in distilled water; • Dihydrocodeine at a dose of 50 mg/kg was suspended in 1% solution of methylcellulose; • Magnesium lactate (in micronized form)—at a dose of 15 mg magnesium ions/kg (150 mg of magnesium lactate/kg) was suspended in 0.5% solution of methylcellulose; • Magnesium lactate in normal (non-micronized) form—at doses of 15 or 30 mg magnesium ions/kg (150 or 300 mg of magnesium lactate/kg, respectively) was suspended in 0.5% solution of methylcellulose; • Magnesium citrate (in micronized and normal form)—at a dose of 15 mg magnesium ions/kg (112 mg of magnesium citrate/kg) was dissolved in distilled water; • Magnesium hydroaspartate (in micronized and normal form)—at a dose of 15 mg magnesium ions/kg (216 mg of magnesium hydroaspartate/kg) was suspended in 0.5% solution of methylcellulose; • Magnesium chloride (in micronized and normal form)—at a dose of 15 mg magnesium ions/kg (59.5 mg of magnesium chloride/kg) was dissolved in distilled water; • Control animals received a 0.5% solution of methylcellulose, a 1% solution of methylcellulose and distilled water, respectively, according to the same time schedule.
Prolonged activity of the investigated drugs was measured the following day after initial administration, but before the next administration as well as after cessation of administration. Drugs were administered for seven consecutive days (administration of morphine, codeine, dihydrocodeine, oxycodone) or for ten days (administration of tramadol).
(§3) All drugs were administered per os (p.o.); literally—orally. However, in practice, drugs were administered intragastric via a gastric tube.
(§4) Changes in pain thresholds were determined using a mechanical stimuli—the modification of the classic paw withdrawal test described by Randall and Selitto [1957]. In order to produce mechanical stimulation, progressively increasing pressure was applied to the dorsal surface of the rat's paw using an analgesymeter. The instrument used increased the force on the paw at a rate of 32 grams per second. The nociceptive threshold was defined as force in grams, at which the rat attempted to withdraw its right hindpaw and values of pressure were recorded at this very moment. At least two observers controlled the response.
(§5) Nociceptive thresholds (average of two trials) measured for each animal before single administration of investigated drugs (measurement of acute activity) or in day 0 before the first administration (measurement of prolonged activity) constituted the baseline pain threshold—A. Next, measurements of the withdrawal threshold to mechanical stimuli were performed at 5, 15, 30, 60, 90, 120, 180, 240, 300 min after drug administration (measurements of acute activity) or every day before drug administration (measurements of prolonged activity)—B.
(§6) In all experimental sessions (i.e. every day, each drug investigated) values of thresholds obtained (B) were compared to baseline (A).
(§7) Changes in pain threshold were calculated as a percent of baseline value according to the following formula:
(§8) [formula] • C—% of analgesia; A—pressure (in g), baseline pain threshold; B—pressure (in g) in consecutive measurements.
(§9) Percents of analgesia values calculated as above for individual animals were subsequently used to calculate average values in particular experimental groups and for statistical analysis.
The results are expressed as mean values±standard […] of the mean (±S.E.M.). The statistical significance of differences between groups was evaluated by Student's t-test. p≦0.05 was accepted as statistically significant.

Male Wistar rats [2] = assay: Acute activity after single p.o. administration, paw withdrawal test (Randall and Selitto), % of analgesia; type: in vivo, rat; details: single administration, 15 mg magnesium ions/kg p.o. with tramadol 125 mg/kg p.o.
Experimental: as §1, §2
Magnesium salts and investigated opioids were administered concomitantly.
The micronized form of magnesium salts used in experiments contains particles of magnesium compounds of size D90<50 μm.
The normal magnesium salts form used in experiments contains particles of sizes commonly available in the market.
Acute activity of investigated drugs was measured in short time periods (from 5 to 300 min) after single administration.
as §3, §4, §5, §6, §7, §8, §9
The results are expressed as mean values±standard deviation of the mean (±S.E.M.).

Compound: CC(O)C(=O)[O-].CC(O)C(=O)[O-].[Mg+2] (stereo not shown) [magnesium lactate, Magnesium lactate]
- pain threshold one day after removal of the tested substances (oxycodone study) (Male Wistar rats [1]): rapid return of the pain threshold to control values
- course of enhancement of oxycodone analgesia (Male Wistar rats [1]; 7 consecutive days): reached its maximum on days 6 and 7
- day on which enhancement of oxycodone analgesia began (Male Wistar rats [1]; 7 consecutive days): third
- effect on long-term analgesic activity of oxycodone (Male Wistar rats [1]; 7 consecutive days): enhanced the long-term analgesic activity of the examined opioid
- enhancement of tramadol analgesia lasted until (Male Wistar rats [2]): 45 min
- time at which enhancement of tramadol analgesia appeared (Male Wistar rats [2]): 5 min
- time of maximum activity on tramadol analgesia (Male Wistar rats [2]): 15 min
